# Experimental data published in patent publication US20060040909A1, “Selenophene compounds” (DEVELOPMENT CENTER FOR BIOTECHNOLOGY, priority 2004, published 2006).
# System: Hep-3B liver cancer cells
# Assay: In vivo assay, Hep-3B cells transplanted subcutaneously into athymic mice
# Details: intraperitoneally, once every two days, 14th day, vs control group
# Protocol: Compound 3 was tested for its efficacy against Hep-3B liver cancer cells implanted in mice of two treated groups at a […] dosage of 50 mg/kg and 75 mg/kg. In a control group, mice bearing Hep-3B liver cancer cells were not treated with any test compound. Male athymic mice (Ncr nu/nu) of 4-6 weeks of age and weighing 20-25 g were used. Mice were housed in cages in ventilated cabinets and provided sterilized pellet diet and sterile water ad libitum. The temperature was kept between 23-25° C. and a humidity of about 50±10%. Light of the housing area was on a 12-hour light/dark cycle. All experimentation was performed under the IACUC guidelines adopted by the Development Center for Biotechnology, Taiwan. Hep-3B cells were transplanted subcutaneously into athymic mice. In the treated groups, when the tumor reached a volume of about 50 mm^3, mice were treated with compound 3 at a dosage of 50 mg/kg or 75 mg/kg once every two days for three times. The treated groups and the control group each had 7 mice. Compound 3 was administered intraperitoneally. The sizes of tumors were measured using a caliper at least twice a week and the tumor volume (TV) was calculated. Body weights were also monitored along with tumor volume measurement. The percentage of tumor growth was determined by dividing the mean TV of the treated group by the mean TV of a control group.
compound,measurement,setting,value
Cn1c(-c2ccc(CO)[se]2)cc(CO)c1-c1ccc(CO)[se]1 [Compound 3],mean TV (tumor volume) reduced,three doses of 50 mg/kg,37%
same,mean TV (tumor volume) reduced,three doses of 75 mg/kg,63%
